Measured values taken from US20050154537A1, “Methods, program products, and systems for single and multi-agent dosing and other related methods” (priority 2003, published 2005).

Test system: ANC
Assay: Chemotherapeutic doublet cycle dose modifier (Taxol, Gemzar), ANC marker
Assay type: in vivo
Conditions: ANC of patient on doublet
Excerpt: Gemzar and Taxol are used in this example as dual agents. Table 2 illustrates a method of revising a drug dose in treating a patient with two pharamcologic and non-pharmacological modalities to optimize pharmacologic outcome, e.g., to reduce risk of an adverse drug event while assessing the clinical relevancy and validity of the measured surrogate markers.
Previous Level of Toxicity-Efficacy (PLTE) is a value directly entered such as from a lab report. It is the numerical value of the marker of toxicity or efficacy reported at the previous dose cycle adjustment (evaluated at a specified elapsed time sufficient to capture the nadir of the dose effect). The surrogate marker is selected when the dose modifier is constructed.
Current Level of Toxicity-Efficacy (CLTE) is a value directly entered such as from a lab report. It is the numerical value of the marker of toxicity or efficacy reported with the current dose cycle. The surrogate marker is that value that illustrates the expression of the toxicity or efficacy of the agent on a specific and pre-selected value determined when the dose modifier is constructed. […] If valid, then the value is fully appreciated and the dose modification can be calculated. […]
Projected Marker Agent 1 (Taxol) (PM1) is calculated by a dose modifier. […]
Projected Marker Agent 2 (Gemzar) (PM2) is calculated by a dose modifier. […]

`CC(=O)O[C@H]1C(=O)[C@@]2(C)[C@H]([C@H](OC(=O)c3ccccc3)[C@]3(O)C[C@H](OC(=O)[C@H](O)[C@@H](NC(=O)c4ccccc4)c4ccccc4)C(C)=C1C3(C)C)[C@]1(OC(C)=O)CO[C@@H]1C[C@@H]2O` [Taxol] was tested, and the “Current Level of Toxicity/CLTEM1” value (current cycle total dose Taxol 300, Gemzar 6200, marker 9 days after dose) was 1.50 and the “Previous Level of Toxicity/PLTEM1” value (previous cycle total dose Taxol 385, Gemzar 7650) was 1.00.
